# Results published in ChEMBL document CHEMBL5465560, “Selectivity Literature for EUbOPEN Chemogenomic Library” (2024).
# Columns and labels:
# [1] = biological target: Ribosomal protein S6 kinase alpha-4 (Homo sapiens) (UniProt O75676); test: Selectivity interaction (KinomeScan (DiscoverX)) EUB0000595a RPS6KA4; conditions: at 10 µM
# [2] = biological target: T1, Ephrin type-A receptor 1 (Homo sapiens) (UniProt P21709); conditions: at 10 µM
# T1 sequence (whole entry): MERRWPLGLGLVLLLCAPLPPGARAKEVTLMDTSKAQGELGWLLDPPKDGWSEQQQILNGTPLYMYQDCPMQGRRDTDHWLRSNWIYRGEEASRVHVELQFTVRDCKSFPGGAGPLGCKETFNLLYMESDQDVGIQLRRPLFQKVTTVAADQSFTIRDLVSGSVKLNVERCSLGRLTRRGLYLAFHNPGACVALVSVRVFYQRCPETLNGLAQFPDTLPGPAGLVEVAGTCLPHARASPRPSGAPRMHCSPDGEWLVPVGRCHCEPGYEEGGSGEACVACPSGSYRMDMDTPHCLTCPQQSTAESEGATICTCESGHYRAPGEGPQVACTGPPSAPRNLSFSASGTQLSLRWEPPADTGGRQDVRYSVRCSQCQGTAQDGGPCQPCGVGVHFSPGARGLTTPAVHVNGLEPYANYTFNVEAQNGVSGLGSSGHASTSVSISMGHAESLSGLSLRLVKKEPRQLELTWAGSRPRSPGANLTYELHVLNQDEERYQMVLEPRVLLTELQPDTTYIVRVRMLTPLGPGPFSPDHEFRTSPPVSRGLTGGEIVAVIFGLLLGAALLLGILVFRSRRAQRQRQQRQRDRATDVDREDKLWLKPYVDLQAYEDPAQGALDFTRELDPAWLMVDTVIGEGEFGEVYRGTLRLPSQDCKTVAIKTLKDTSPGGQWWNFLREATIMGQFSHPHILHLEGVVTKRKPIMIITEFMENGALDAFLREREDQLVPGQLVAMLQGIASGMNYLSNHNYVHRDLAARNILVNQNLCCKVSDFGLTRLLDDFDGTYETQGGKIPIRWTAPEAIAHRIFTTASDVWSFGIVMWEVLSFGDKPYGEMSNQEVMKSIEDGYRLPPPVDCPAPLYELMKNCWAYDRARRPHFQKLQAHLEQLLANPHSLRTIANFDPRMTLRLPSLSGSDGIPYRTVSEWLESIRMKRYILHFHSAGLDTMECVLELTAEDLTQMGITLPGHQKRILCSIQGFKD
# [3] = biological target: Mitogen-activated protein kinase kinase kinase kinase 4 (Homo sapiens, UniProt O95819); test: Selectivity interaction (KinomeScan (DiscoverX)) EUB0000655a MAP4K4; conditions: at 10 µM
# Mitogen-activated protein kinase kinase kinase kinase 4, sequence (O95819 2-1239 limits assumed): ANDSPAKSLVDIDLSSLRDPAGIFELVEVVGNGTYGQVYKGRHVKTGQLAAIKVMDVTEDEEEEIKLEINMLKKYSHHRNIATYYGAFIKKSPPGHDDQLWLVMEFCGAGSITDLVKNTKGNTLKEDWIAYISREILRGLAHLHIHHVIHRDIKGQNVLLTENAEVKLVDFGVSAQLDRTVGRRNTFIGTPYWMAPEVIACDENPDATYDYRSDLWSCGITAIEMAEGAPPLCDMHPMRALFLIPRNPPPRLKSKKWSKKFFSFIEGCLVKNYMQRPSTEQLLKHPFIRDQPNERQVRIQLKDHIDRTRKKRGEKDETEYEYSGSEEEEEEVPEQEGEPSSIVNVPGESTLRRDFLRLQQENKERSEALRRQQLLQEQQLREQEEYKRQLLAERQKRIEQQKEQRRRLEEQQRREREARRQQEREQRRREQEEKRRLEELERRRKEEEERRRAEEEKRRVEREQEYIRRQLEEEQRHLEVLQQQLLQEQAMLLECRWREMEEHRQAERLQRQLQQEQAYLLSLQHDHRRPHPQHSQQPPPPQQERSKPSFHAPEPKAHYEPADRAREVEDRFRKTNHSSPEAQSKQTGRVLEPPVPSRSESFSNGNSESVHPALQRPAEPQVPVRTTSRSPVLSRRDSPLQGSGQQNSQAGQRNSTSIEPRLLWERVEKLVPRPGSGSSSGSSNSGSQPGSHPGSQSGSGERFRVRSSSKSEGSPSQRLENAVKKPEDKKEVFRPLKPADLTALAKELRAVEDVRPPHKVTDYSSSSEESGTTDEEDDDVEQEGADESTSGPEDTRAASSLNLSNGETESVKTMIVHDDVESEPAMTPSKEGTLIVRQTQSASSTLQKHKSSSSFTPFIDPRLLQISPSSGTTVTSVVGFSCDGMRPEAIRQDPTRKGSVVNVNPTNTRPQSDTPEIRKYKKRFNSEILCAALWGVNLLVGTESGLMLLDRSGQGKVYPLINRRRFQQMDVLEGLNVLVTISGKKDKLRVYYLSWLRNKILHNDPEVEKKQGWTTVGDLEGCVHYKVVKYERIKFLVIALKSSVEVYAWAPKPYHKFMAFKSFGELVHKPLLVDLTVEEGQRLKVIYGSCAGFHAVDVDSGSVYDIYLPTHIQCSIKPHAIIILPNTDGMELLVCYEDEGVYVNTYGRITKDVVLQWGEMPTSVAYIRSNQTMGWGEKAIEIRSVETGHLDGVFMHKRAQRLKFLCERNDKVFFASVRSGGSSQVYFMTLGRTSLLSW
# [4] = biological target: T2, Cyclin-dependent kinase-like 2 (Homo sapiens) (UniProt Q92772); test: Selectivity interaction (KinomeScan (DiscoverX)) EUB0000092b CDKL2; conditions: at 10 µM
# T2 sequence (whole entry): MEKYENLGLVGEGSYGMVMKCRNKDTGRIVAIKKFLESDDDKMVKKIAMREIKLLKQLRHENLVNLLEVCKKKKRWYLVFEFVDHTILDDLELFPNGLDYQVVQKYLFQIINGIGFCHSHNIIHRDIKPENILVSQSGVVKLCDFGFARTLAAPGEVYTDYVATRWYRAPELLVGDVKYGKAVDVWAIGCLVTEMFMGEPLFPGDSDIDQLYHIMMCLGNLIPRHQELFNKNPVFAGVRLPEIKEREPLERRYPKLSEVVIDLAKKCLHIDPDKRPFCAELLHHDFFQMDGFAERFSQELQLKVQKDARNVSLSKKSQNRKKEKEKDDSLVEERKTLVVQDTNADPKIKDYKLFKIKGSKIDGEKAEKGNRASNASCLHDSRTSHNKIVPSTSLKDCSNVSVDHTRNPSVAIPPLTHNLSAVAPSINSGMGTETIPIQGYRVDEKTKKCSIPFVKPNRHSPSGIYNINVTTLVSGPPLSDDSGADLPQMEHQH
# [5] = biological target: T3, Mitogen-activated protein kinase kinase kinase kinase 3 (Homo sapiens) (UniProt Q8IVH8); test: Selectivity interaction (KinomeScan (DiscoverX)) EUB0000092b MAP4K3; conditions: at 10 µM
# T3 sequence (whole entry): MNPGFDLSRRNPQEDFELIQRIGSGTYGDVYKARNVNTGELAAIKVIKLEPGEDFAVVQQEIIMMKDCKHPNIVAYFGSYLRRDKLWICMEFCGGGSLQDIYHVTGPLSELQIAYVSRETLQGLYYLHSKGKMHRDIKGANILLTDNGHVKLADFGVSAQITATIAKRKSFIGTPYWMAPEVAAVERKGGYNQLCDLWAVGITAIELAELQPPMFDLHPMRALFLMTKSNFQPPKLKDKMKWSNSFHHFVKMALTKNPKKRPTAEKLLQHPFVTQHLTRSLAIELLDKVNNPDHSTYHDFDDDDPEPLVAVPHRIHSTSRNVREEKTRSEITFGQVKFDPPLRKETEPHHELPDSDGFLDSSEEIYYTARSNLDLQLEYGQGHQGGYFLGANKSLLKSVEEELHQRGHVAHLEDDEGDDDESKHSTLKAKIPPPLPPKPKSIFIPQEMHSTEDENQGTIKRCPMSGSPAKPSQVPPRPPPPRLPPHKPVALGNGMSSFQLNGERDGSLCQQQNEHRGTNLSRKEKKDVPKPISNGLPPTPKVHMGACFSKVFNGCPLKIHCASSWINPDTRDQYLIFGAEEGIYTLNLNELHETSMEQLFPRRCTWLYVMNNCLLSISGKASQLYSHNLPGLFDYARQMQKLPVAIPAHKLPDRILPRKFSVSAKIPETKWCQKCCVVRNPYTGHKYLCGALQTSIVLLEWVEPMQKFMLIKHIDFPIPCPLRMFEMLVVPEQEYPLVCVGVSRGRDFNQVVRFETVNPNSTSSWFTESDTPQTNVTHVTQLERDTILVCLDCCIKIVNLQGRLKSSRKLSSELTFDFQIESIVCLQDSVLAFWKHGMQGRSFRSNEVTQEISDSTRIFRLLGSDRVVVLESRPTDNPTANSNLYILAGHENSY
# [6] = biological target: Serine/threonine-protein kinase PLK1 (Homo sapiens, UniProt P53350); test: Selectivity interaction (Ambit KINOMEscan and KiNATiv profiling in Jurkat cells) EUB0000090b PLK1; format: cell-based; conditions: at 1 µM
# Serine/threonine-protein kinase PLK1, sequence (P53350 whole entry): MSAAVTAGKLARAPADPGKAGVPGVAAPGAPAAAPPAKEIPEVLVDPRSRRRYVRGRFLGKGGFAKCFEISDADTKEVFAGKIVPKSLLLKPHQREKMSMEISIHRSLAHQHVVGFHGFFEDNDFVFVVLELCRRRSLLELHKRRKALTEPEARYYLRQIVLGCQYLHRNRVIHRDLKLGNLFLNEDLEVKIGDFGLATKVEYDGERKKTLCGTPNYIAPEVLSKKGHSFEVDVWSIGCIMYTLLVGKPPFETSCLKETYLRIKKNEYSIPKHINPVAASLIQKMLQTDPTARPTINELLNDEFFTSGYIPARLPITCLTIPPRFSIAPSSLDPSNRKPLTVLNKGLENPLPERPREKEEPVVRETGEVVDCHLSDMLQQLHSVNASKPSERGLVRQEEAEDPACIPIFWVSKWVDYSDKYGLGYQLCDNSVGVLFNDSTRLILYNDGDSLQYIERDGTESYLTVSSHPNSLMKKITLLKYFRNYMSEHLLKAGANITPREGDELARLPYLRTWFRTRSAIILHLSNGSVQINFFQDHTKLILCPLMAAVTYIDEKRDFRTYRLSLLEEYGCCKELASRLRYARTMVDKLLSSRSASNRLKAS
# Ribosomal protein S6 kinase alpha-4 (Homo sapiens), sequence (O75676 whole entry, looked up): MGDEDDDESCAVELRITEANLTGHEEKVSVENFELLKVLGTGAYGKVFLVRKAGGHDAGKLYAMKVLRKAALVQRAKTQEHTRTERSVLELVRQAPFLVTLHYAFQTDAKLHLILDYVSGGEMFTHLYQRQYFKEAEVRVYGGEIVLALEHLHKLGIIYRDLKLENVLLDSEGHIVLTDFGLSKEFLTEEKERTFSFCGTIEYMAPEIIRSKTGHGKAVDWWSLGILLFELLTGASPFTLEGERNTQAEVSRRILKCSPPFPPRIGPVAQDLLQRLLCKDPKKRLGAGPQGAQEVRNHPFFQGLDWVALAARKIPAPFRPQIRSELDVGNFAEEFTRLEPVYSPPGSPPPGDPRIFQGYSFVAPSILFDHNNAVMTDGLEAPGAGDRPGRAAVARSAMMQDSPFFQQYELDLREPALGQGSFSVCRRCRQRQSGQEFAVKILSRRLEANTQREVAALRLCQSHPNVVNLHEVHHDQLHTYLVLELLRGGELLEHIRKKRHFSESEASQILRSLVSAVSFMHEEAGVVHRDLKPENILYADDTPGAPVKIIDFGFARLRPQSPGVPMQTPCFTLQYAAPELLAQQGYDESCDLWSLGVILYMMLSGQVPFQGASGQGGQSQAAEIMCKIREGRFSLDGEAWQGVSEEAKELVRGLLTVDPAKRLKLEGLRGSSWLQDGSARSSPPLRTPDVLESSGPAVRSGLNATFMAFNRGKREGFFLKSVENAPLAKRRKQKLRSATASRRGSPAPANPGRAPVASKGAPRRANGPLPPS
structure (smiles),measurement,setting,value
COCC(=O)NC/C=C/c1ccc2ncnc(Nc3ccc(Oc4ccc(C)nc4)c(C)c3)c2c1 [CP-724714],% of control,[1],100%
Cc1cc([C@@H](C)Nc2ccccc2C(=O)O)c2nc(N3CCOCC3)cc(=O)n2c1 [AZD-6482],% of control,[2],100%
CN(C)CCOc1ccc(-c2nc(-c3ccncc3)c(-c3ccc4c(c3)CC/C4=N\O)[nH]2)cc1,% of control,[3],27%
CCC(=O)N1CCN(c2ccc(-n3c(=O)ccc4cnc5ccc(-c6cnc7ccccc7c6)cc5c43)cc2C(F)(F)F)CC1,% of control,[4],58%
same,% of control,[5],1.9%
CN(C)C/C=C/C(=O)Nc1ccc(C(=O)N2CCCC(Nc3ncc(Cl)c(-c4c[nH]c5ccccc45)n3)C2)cc1 (stereo unspecified),% of control,[6],90%
